Here are results for 5 molecules from patent US10246786B2, “Renewable bioelectronic interface for electrobiocatalytic reactor” (priority 2009, dated 2019).

For data set [1] the following is noted: carboxylic acid group; cited from earlier work.
The subject of data set [2] is Mannitol dehydrogenase from Thermotoga maritima (TmMtDH). Briefly: Cyclic voltammetry of the Gly-TBO-PEI-NADH-TmMtDH-modified electrode with sugar substrates (calibration plot, saturation current, turnover). The following applies: substrate tested on Gly-TBO-PEI-NADH-TmMtDH-modified electrode; 100 mM PBS pH 6.0, 60° C. The data set is classed as biochemical. As to the method:
Cyclic voltammetric experiments were conducted by sweeping the potential of the working electrode between 200 mV and −600 mV at a scan rate of 100 mV s^−1, causing fructose in the vicinity of the electrode to be reduced to mannitol in the […] direction and mannitol to be oxidized to fructose in the reverse direction. All electrochemical measurements were made in 100 mM PBS (pH 6.0) at 60° C. using an electrode with a controlled surface area of 0.07 cm^2. The slope of the calibration plot, which depicts peak current vs. concentration, is a measure of the biosensor's sensitivity. The maximum turnover rate (TRmax), which corresponds to the number of fructose molecules reduced per TmMtDH molecule per second, was calculated using Eq. 6 (Eisenwiener and Schulz, 1969):
[formula] where the background current (I0) and saturation current (Icat^sat) are given by the y-intercept of the calibration curve and the plateau current at a given concentration, respectively. Electrochemical Impedance Spectroscopy
The slope of the calibration curve (0.70±0.01 μA) mM^−1 cm^−2) is a measure of the biosensor's sensitivity. At higher concentrations, the anodic current reached a saturation value (Icat^sat=740.9±11.6 μA cm^−2). This value was used to calculate a TRmax, which represents the number of molecules of fructose reduction per TmMtDH molecule per second, of 57.5±2.8 s^−1, using Eq. 6 (Eisenwiener and Schulz, 1969).
The selectivity of the Gly-TBO-PEI-NADH-TmMtDH-modified electrode was examined by testing alternative substrates.

The structures appear in SMILES notation.

In general, pKa refers to the negative logarithm of the acid dissociation constant. Regarding `NCC(=O)O` [Gly, Glycine], the pKa in data set [1] is about 4.3.
`O=C(CO)[C@H](O)[C@@H](O)[C@H](O)CO` [Sorbose, sorbose]: in data set [2], the “Icat^sat” value is listed as 562.4 ± 1.4 μA cm^−2 and the Sensitivity stood at 0.4 ± 0.0 μA mM^−1 cm^−2.
As to `O=C(O)CCS` [MPA], the pKa in data set [1] is reported as about 4.3.
As for `O=C(CO)[C@@H](O)[C@H](O)[C@H](O)CO` [Fructose, D-fructose], in data set [2], the “Icat^sat” value came to 748.2 ± 11.7 μA cm^−2 and the Sensitivity was 10.1 ± 0.2 μA mM^−1 cm^−2.
The corresponding values for `OC1COC(O)C(O)C1O` (centres unmarked) [Arbinose, arbinose] are 542.8 ± 9.1 μA cm^−2 and 0.3 ± 0.0 μA mM^−1 cm^−2.
